Assays:
human ANO6 [1] = biological target: T1, human ANO6 (Homo sapiens, UniProt Q4KMQ2); assay: YFP quenching assay (ANO6 ion channel activity); assay type: cell-based; conditions: 10 μM ionomycin; for inhibition at 1 µM: test compound 1 μM, read-out: Inhibition Level 1 μM; for inhibition at 30 µM: test compound 30 μM, read-out: Inhibition Level 30 μM
T1 construct: expressed in transfected cells
T1 sequence (Q4KMQ2 1-931 isoform Q4KMQ2-2): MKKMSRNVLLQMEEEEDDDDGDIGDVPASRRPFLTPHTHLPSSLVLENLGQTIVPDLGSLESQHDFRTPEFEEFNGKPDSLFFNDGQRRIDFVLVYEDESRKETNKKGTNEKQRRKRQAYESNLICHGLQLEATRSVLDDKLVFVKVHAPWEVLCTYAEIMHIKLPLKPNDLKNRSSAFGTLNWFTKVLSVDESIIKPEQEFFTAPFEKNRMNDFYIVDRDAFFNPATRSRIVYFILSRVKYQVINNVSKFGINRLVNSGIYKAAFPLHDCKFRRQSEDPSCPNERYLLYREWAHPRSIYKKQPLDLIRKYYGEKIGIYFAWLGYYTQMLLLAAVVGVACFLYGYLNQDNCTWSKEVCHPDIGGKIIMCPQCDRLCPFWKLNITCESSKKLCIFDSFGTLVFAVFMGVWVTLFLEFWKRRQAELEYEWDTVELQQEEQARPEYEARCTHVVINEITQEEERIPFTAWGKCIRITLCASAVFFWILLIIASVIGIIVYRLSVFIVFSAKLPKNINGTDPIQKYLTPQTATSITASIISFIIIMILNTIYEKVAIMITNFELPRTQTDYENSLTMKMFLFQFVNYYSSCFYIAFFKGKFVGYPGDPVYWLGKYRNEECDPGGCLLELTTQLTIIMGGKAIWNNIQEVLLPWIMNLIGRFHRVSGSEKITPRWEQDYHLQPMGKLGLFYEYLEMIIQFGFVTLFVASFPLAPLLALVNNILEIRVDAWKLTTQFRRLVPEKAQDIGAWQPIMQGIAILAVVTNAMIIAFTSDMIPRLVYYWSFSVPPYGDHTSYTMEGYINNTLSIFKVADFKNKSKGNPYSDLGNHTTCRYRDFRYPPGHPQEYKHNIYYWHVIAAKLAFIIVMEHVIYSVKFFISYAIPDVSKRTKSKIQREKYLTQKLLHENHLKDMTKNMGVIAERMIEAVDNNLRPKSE
Outline: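 FRT cells stably expressing human ANO6 and YFP-H148Q/I152L/F46L, preincubated 10 min at 40° C with compounds (1% DMSO) in PBS. Quench read every 0.4 s after injecting 140 mM SCN- with 10 μM ionomycin; % inhibition from the 3.6–7.6 s fluorescence difference, normalised to no-ionomycin (100%) and ionomycin-only (0%) wells, duplicate or triplicate.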

human ANO6 [2] = biological target: T1, human ANO6; assay: LACT C2 assay (phosphatidylserine scramblase function assay); assay type: cell-based; conditions: FRT cells expressing human ANO6, 10 μM ionomycin; for inhibition at 0.1 µM: test compound 100 nM, read-out: Inhibition Level 100 nM; for inhibition at 1 µM: test compound 1 μM, read-out: Inhibition Level 1 μM
Outline: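 Inhibition was normalised between ionomycin-only (0%) and untreated (100%) wells, with triplicates averaged. Readout was background-corrected Lact-C2-GFP (500 nM) fluorescence from imaged cells. The cells were FRT cells stably expressing human ANO6, given compound at 1% DMSO for 10 min before a 10 min 10 μM ionomycin challenge.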

Structure (SMILES)	inhibition at 1 µM (human ANO6 [1]) [%]	inhibition at 0.1 µM (human ANO6 [2]) [%]	inhibition at 1 µM (human ANO6 [2]) [%]	inhibition at 30 µM (human ANO6 [1]) [%]
O=C(NC1CC1c1ccccc1)c1cccc(Nc2ccc(-c3ccccc3)nn2)c1 (stereo not shown) [Compound 67, N-(2-phenylcyclopropyl)-3-[(6-phenylpyridazin-3-yl)amino]benzamide]	≥ 60	≥ 60	≥ 60	–
O=C(NCC1CCCC1)c1cccc(Nc2ccc(-c3ccccc3)nn2)c1 [Compound 33, N-(cyclopentylmethyl)-3-[(6-phenylpyridazin-3-yl)amino]benzamide]	≥ 60	< 30	≥ 60	≥ 60
O=C(N[C@@H]1C[C@H]1c1ccccc1)c1cccc(Nc2ncc(-c3ccccc3)cn2)c1 [Compound 117, N-[(1R,2S)-2-phenylcyclopropyl]-3-[(5-phenylpyrimidin-2-yl)amino]benzamide]	≥ 60	< 30	< 30	–
Cc1ccc(CNC(=O)c2cccc(Nc3ncc(-c4ccccc4)cn3)c2)o1 [Compound 2, N-[(5-methylfuran-2-yl)methyl]-3-[(5-phenylpyrimidin-2-yl)amino]benzamide]	30 to 60	< 30	≥ 60	≥ 60
Cc1ccc(CNC(=O)c2cccc(Nc3ccc(-c4ccccc4)cc3)c2)o1 [Compound 3, 3-({[1,1′-biphenyl]-4-yl}amino)-N-[(5-methylfuran-2-yl)methyl]benzamide]	≥ 60	< 30	≥ 60	≥ 60
COc1cccc(CCNC(=O)c2cccc(Nc3ncc(-c4cccc(F)c4)cn3)c2)c1 [Compound 78, 3-{[5-(3-fluorophenyl)pyrimidin-2-yl]amino}-N-[2-(3-methoxyphenyl)ethyl]benzamide]	30 to 60	30 to 60	≥ 60	–
O=C(NCCc1ccccc1)c1cccc(Nc2ncc(-c3ccccc3)cn2)c1 [Compound 52, N-(2-phenylethyl)-3-[(5-phenylpyrimidin-2-yl)amino]benzamide]	≥ 60	–	30 to 60	–
Cc1ccc(CNC(=O)c2cccc(Nc3ccc(-c4ccoc4)nn3)c2)o1 [Compound 7, 3-{[6-(furan-3-yl)pyridazin-3-yl]amino}-N-[(5-methylfuran-2-yl)methyl]benzamide]	≥ 60	< 30	≥ 60	≥ 60
O=C(NCC1CCC1)c1cccc(Nc2ccc(-c3ccccc3)nn2)c1 [Compound 30, N-(cyclobutylmethyl)-3-[(6-phenylpyridazin-3-yl)amino]benzamide]	≥ 60	–	30 to 60	≥ 60
Cc1ccc(CNC(=O)c2cccc(Nc3ccc(-c4ccccc4)nn3)c2)s1 [Compound 40, N-[(5-methylthiophen-2-yl)methyl]-3-[(6-phenylpyridazin-3-yl)amino]benzamide]	≥ 60	< 30	≥ 60	≥ 60
Cc1ccc(CNC(=O)c2cccc(Nc3ncc(-c4ccccc4C(F)(F)F)cn3)c2)o1 [Compound 98, N-[(5-methylfuran-2-yl)methyl]-3-({5-[2-(trifluoromethyl)phenyl]pyrimidin-2-yl}amino)benzamide]	≥ 60	–	30 to 60	–
Cc1ccc(CNC(=O)c2cccc(Nc3ccc(C4CCCCC4)nn3)c2)o1 [Compound 63, 3-[(6-cyclohexylpyridazin-3-yl)amino]-N-[(5-methylfuran-2-yl)methyl]benzamide]	30 to 60	–	< 30	–
O=C(NCc1ccoc1)c1cccc(Nc2ccc(-c3ccccc3)nn2)c1 [Compound 45, N-[(furan-3-yl)methyl]-3-[(6-phenylpyridazin-3-yl)amino]benzamide]	≥ 60	–	< 30	–
Cc1ccc(CNC(=O)c2cccc(Nc3ccc(-c4ccsc4)nn3)c2)o1 [Compound 73, N-[(5-methylfuran-2-yl)methyl]-3-{[6-(thiophen-3-yl)pyridazin-3-yl]amino}benzamide]	≥ 60	< 30	≥ 60	–
Cc1ccc(CNC(=O)c2cccc(Nc3ccc(-c4ccccc4)nc3)c2)o1 [Compound 6, N-[(5-methylfuran-2-yl)methyl]-3-[(6-phenylpyridin-3-yl)amino]benzamide]	≥ 60	–	30 to 60	≥ 60

Other lines, results leading:

inhibition at 1 µM (human ANO6 [1]) [%]	inhibition at 0.1 µM (human ANO6 [2]) [%]	inhibition at 1 µM (human ANO6 [2]) [%]	inhibition at 30 µM (human ANO6 [1]) [%]	Structure (SMILES)
30 to 60	≥ 60	≥ 60	≥ 60	O=C(NC1CCCCCC1)c1cccc(Nc2ccc(-c3ccccc3)nn2)c1 [Compound A39]
≥ 60	< 30	< 30	≥ 60	CC(CCc1ccccc1)NC(=O)c1cccc(Nc2ccc(-c3ccccc3)nn2)c1 (stereo not shown) [Compound A58]
30 to 60	< 30	< 30	≥ 60	O=C(NCc1ccccc1)c1cccc(Nc2ccc(-c3ccc(F)cc3)nn2)c1 [Compound A16]
≥ 60	< 30	< 30	≥ 60	Cc1ccc(CNC(=O)c2cccc(Nc3ccc(-c4ccccc4)nn3)c2)o1 [Compound A8]
≥ 60	< 30	≥ 60	≥ 60	O=C(NCCC1=CCCCC1)c1cccc(Nc2ccc(-c3ccccc3)nn2)c1 [Compound A40]
≥ 60	< 30	< 30	≥ 60	Cc1ccc(CNC(=O)c2cccc(Nc3ccc(-c4ccc(F)cc4)nn3)c2)cc1 [Compound A22]
≥ 60	–	30 to 60	≥ 60	CCCCCNC(=O)c1cccc(Nc2ccc(-c3ccccc3)nn2)c1 [Compound A72]
≥ 60	< 30	< 30	≥ 60	CCCNC(=O)c1cccc(Nc2ccc(-c3ccccc3)nn2)c1 [Compound A68]
≥ 60	< 30	30 to 60	≥ 60	CCCCNC(=O)c1cccc(Nc2ccc(-c3ccccc3)nn2)c1 [Compound A65]
≥ 60	< 30	< 30	≥ 60	CC(C)c1ccc(CNC(=O)c2cccc(Nc3ccc(-c4ccc(F)cc4)nn3)c2)cc1 [Compound A36]
≥ 60	30 to 60	≥ 60	≥ 60	CCCCCCNC(=O)c1cccc(Nc2ccc(-c3ccccc3)nn2)c1 [Compound A37]
≥ 60	30 to 60	≥ 60	≥ 60	O=C(NCCc1ccc(Cl)cc1)c1cccc(Nc2ccc(-c3ccccc3)nn2)c1 [Compound A45]
≥ 60	< 30	< 30	≥ 60	CC(C)c1ccc(CNC(=O)c2cccc(Nc3ccc(-c4ccccc4)nn3)c2)cc1 [Compound A53]
≥ 60	< 30	< 30	≥ 60	CCC(C)NC(=O)c1cccc(Nc2ccc(-c3ccccc3)nn2)c1 (stereo not shown) [Compound A78]
≥ 60	< 30	30 to 60	≥ 60	Cc1ccccc1CNC(=O)c1cccc(Nc2ccc(-c3ccccc3)nn2)c1 [Compound A48]
≥ 60	< 30	< 30	≥ 60	CC(C)CNC(=O)c1cccc(Nc2ccc(-c3ccc(F)cc3)nn2)c1 [Compound A11]

Source: patent US20230080054A1 (ILDONG PHARMACEUTICAL CO., LTD., priority 2021, published 2023)
